From publication PMC11870023, “A facile assay for zDHHC palmitoyl transferase activation elucidates effects of mutation and modification” (Journal of Lipid Research, 2025) come the findings set out here.

Test in all cases: auto-S-palmitoylation of HEK293 membranes, SDS-PAGE fluorescence normalised to tag Western blot
(In general: In western blotting, separated proteins are transferred to a membrane and probed.)

In one experiment the target is T1, human zDHHC14 (Homo sapiens, UniProt Q8IZN3, C181Y).
T1 construct: full length, His6-Myc tag kept (pCEpuro-His6-Myc-1), HEK293 membrane fraction
T1 sequence (Q8IZN3 1-488 C181Y): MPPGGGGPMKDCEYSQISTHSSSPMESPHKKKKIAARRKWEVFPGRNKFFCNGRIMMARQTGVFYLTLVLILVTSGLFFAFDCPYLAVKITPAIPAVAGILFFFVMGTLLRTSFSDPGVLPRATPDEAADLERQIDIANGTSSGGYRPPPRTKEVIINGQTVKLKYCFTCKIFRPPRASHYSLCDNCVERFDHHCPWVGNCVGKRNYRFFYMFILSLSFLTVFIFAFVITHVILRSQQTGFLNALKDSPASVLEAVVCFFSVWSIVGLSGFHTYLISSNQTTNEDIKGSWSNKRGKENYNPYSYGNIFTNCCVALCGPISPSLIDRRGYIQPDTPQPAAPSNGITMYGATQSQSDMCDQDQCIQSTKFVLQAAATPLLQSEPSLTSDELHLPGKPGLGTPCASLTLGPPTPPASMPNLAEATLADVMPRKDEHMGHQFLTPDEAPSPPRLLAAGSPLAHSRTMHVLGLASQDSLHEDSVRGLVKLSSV
The format is biochemical. The settings on record: pH 7.4, 37 °C, 2 min; labelled compound; covalent thioester at active-site Cys.

In a further experiment the test system is T2, mouse zDHHC11.
T2 construct: full length, HA tag kept (pEF-Bos-HA), HEK293 membrane fraction; the source plasmid set's older numbering used DHHC-11 for Zdhhc23, so the gene is not certain
Format: cell-based. The settings on record: pH 7.4, 37 °C; labelled compound; covalent thioester at active-site Cys.

The target in experiment [1] is T3, human zDHHC7 (Homo sapiens, UniProt Q9NXF8).
T3 construct: full length, His6-Myc tag kept (pCEpuro-His6-Myc-1), HEK293 membrane fraction
T3 sequence (Q9NXF8 1-308): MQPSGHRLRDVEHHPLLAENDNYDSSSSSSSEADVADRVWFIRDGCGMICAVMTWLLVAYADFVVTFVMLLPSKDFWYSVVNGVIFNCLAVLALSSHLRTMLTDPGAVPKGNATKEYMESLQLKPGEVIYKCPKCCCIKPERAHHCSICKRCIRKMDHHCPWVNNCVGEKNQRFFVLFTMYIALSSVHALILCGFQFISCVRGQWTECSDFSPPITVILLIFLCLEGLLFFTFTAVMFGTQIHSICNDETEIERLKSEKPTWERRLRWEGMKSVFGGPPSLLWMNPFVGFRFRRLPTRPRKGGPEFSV
The format is cell-based. The settings on record: pH 7.4, 37 °C, 2 min; labelled compound; covalent thioester at active-site Cys. The text has this: auto-S-palmitoylation of HEK293 membranes, SDS-PAGE fluorescence normalised to tag Western blot on human zDHHC7 | N44D mutation within the N-terminal cytoplasmic tail of zDHHC7 (Fig. 4A) had no effect

Experiment [2] addresses T3, human zDHHC7. Format: cell-based. The settings on record: pH 7.4, 37 °C, 2 min; labelled compound; covalent thioester at active-site Cys. The source holds these as a separate data set.

One may read the Km as the concentration of substrate that gives half-maximal velocity. Take `CC(C)(COP(=O)(O)OP(=O)(O)OC[C@H]1O[C@@H](n2cnc3c(N)ncnc32)[C@H](O)[C@@H]1OP(=O)(O)O)[C@@H](O)C(=O)NCCC(=O)NCCSC(=O)CCCCCCCCCCCCCCCNc1ccc([N+](=O)[O-])c2nonc12` [NBD-palmitoyl-CoA, N-[(7-nitro-2-1,3-benzoxadiazol-4-yl)-methyl]amino palmitoyl]: the “auto-S-palmitoylation of HEK293 membranes, SDS-PAGE fluorescence normalised to t” value on human zDHHC14 is listed as “C→Y mutation of Cys181 within the second zinc finger domain (Fig. 4A) eliminated auto-S-palmitoylation”. Besides, the results for the Km in the experiment with mouse zDHHC11, at human zDHHC7 [1] and on human zDHHC7 [2] were 0.89 ± 0.23 µM, 2.85 ± 0.72 µM and 3.4 ± 0.57 µM, respectively.
